Reference: patent US9440957B2, “Compounds and compositions for modulating EGFR Activity” (Novartis AG, priority 2012, dated 2016)
Where two headings read alike, the source gives them in different places.

Columns and labels:
[1] = biological target: human EGFR L858R/T790M (NIH/3T3 cells) (Homo sapiens, UniProt P00533, L858R/T790M); assay: EGFR target modulation in engineered NIH/3T3 cell lines (phospho-EGFR Y1068 AlphaLISA), EGFR L858R/T790M; format: cell-based; conditions: engineered NIH/3T3 cells, read-out: NIH3T3 IC50 (μM) EGFR (L858R/T790M)
Sequence of human EGFR L858R/T790M (NIH/3T3 cells) (P00533 25-1210 T790M/L858R): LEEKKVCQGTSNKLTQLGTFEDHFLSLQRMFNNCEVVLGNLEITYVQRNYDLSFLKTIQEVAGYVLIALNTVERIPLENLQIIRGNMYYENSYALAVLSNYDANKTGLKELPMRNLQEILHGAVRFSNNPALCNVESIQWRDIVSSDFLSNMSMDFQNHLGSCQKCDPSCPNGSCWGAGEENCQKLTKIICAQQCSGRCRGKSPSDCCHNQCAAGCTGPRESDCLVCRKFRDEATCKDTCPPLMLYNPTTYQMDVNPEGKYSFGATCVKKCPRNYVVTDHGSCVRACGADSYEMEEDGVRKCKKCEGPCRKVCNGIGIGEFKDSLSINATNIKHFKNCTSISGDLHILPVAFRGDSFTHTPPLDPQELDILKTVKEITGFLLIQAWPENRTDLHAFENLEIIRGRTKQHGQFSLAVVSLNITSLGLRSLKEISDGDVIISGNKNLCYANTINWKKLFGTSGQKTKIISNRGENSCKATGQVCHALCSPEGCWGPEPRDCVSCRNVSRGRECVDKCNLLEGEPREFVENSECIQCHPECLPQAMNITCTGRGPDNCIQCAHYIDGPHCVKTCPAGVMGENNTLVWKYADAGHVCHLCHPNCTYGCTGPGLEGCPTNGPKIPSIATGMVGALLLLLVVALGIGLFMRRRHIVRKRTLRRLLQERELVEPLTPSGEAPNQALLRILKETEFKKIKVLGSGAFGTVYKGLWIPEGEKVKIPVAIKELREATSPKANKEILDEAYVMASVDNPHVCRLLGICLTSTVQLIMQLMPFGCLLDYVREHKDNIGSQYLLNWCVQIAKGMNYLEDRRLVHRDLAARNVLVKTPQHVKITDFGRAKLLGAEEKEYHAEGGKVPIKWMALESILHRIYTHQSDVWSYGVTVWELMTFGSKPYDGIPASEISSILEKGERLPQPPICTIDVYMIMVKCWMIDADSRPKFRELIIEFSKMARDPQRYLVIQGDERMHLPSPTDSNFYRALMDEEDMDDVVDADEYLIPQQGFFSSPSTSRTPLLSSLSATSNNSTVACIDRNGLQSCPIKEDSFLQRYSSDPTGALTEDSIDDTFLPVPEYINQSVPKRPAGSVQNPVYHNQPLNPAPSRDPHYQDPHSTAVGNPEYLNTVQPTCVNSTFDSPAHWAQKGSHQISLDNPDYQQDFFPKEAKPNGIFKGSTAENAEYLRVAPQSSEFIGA
Experimental: (§1) EGFR Target Modulation in Engineered NIH/3T3 Cell Lines Tissue Culture.
(§2) The cells were harvested with 0.05% Trypsin/EDTA (Hyclone #SH30236.01), re-suspended in 5% FBS/DMEM Pen/Strep without Puromycin and plated at 9,000 cells per well in 50 μl of media in a 384-well black plate with clear bottoms (Greiner #789068G). The cells were allowed to incubate overnight in a 37° C., 5% CO2 humidified tissue culture incubator. A 12-point test compound curve was prepared by serial diluting a 10 μM stock 1:3 in DMSO in a 384-well compound plate (Greiner #789201L). The serial diluted compounds were transferred to the plate containing cells by using a 50 nl Pin Head device (Perkin Elmer) and the cells were placed back in the incubator for 3 hours. Only the EGFR WT-expressing cells were induced with 50 ng/ml EGF (Preprotech #AF-100-15) for 5 minutes before lysis. […] The plates were shaken at 4° C. for 5 minutes with foil top at maximum speed. […] The plates were sealed with a foil top and frozen at −80° C. and thawed when needed.
(§3) The frozen aliquots were thawed and briefly centrifuged. All antibodies and beads were diluted in 1× AlphaLISA HiBlock Buffer (PE #AL004C). […] Goat anti-total EGFR (R&D Systems #AF231) was added and allowed to equilibrate for 1 hour at room temperature at 1 nM final concentration.
(§4) With these parameters, the IC50's for each compound in each cell line was calculated using non-linear curve fitting analysis.

[2] = biological target: human EGFR L858R (NIH/3T3 cells) (Homo sapiens, UniProt P00533, L858R); assay: EGFR target modulation in engineered NIH/3T3 cell lines (phospho-EGFR Y1068 AlphaLISA), EGFR L858R; format: cell-based; conditions: engineered NIH/3T3 cells, read-out: NIH3T3 IC50 (μM) EGFR (L858R)
Sequence of human EGFR L858R (NIH/3T3 cells) (P00533 25-1210 L858R): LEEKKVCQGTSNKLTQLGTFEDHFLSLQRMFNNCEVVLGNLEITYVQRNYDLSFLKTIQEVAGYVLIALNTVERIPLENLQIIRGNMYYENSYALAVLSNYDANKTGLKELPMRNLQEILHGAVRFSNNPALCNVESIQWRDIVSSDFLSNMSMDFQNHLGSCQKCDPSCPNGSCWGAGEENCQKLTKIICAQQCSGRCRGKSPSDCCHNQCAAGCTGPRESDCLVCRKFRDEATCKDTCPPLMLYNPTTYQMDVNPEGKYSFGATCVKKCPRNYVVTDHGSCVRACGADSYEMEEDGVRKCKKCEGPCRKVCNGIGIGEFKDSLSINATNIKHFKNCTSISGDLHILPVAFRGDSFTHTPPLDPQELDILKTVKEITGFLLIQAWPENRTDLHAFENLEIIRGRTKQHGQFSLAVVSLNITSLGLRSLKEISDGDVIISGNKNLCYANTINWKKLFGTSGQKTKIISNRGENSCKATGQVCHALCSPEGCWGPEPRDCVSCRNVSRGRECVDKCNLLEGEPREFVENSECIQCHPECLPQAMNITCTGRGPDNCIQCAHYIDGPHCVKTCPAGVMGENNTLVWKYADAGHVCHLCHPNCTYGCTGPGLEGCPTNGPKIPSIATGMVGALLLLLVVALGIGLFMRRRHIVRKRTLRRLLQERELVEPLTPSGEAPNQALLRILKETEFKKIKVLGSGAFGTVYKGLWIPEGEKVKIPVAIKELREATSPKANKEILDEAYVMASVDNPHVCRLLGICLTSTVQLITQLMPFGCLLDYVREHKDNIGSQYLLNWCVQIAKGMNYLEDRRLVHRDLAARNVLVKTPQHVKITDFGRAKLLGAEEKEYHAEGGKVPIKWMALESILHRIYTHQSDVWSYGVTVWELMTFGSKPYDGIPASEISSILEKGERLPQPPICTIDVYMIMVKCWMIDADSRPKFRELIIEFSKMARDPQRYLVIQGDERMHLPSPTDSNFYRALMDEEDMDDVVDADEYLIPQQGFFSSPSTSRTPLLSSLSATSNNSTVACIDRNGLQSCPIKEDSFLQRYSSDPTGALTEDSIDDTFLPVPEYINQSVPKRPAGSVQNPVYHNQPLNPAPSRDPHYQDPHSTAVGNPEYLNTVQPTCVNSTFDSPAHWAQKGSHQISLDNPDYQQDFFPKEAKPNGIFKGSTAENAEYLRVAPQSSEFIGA
Experimental: as §1, §2, §3, §4

[3] = biological target: human EGFR WT (NIH/3T3 cells, EGF-induced) (Homo sapiens, UniProt P00533); assay: EGFR target modulation in engineered NIH/3T3 cell lines (phospho-EGFR Y1068 AlphaLISA), EGFR WT; format: cell-based; conditions: engineered NIH/3T3 cells, read-out: NIH3T3 IC50 (μM) EGFR (WT)
Sequence of human EGFR WT (NIH/3T3 cells, EGF-induced) (P00533 25-1210): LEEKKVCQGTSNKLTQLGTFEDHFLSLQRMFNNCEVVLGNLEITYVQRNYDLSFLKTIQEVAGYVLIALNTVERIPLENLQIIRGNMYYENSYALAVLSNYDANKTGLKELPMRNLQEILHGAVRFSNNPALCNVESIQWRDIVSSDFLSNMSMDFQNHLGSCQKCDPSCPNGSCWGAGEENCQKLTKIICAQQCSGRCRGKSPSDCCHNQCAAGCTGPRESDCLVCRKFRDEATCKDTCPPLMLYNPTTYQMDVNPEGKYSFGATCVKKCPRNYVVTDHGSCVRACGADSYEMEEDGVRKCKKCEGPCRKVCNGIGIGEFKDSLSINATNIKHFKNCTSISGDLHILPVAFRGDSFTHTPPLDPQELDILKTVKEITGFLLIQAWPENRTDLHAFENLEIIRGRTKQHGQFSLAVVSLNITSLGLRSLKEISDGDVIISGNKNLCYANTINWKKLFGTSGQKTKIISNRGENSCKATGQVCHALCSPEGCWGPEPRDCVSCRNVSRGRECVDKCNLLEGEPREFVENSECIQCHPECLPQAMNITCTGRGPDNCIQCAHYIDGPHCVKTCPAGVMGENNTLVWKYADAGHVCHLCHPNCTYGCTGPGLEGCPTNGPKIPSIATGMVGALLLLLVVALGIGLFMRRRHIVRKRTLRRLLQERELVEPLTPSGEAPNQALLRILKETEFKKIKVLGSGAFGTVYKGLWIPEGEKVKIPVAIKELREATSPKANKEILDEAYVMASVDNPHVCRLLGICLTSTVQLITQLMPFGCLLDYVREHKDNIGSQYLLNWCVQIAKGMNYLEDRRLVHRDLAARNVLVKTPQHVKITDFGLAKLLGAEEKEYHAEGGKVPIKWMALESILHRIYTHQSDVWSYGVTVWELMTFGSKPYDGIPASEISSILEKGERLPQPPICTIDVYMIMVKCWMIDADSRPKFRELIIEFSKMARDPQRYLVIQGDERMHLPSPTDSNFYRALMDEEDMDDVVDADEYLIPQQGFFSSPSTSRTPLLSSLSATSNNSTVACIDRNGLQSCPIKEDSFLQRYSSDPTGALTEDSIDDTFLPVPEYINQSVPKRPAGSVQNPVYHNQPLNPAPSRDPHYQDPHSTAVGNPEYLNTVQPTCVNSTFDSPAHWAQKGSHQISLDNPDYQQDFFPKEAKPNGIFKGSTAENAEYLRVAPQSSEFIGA
Experimental: as §1, §2, §3, §4

EGFR(L858R/T790M) = biological target: T1, EGFR(L858R/T790M) (Homo sapiens, UniProt P00533, L858R/T790M); assay: EGFR biochemical assay (HTRF), IC50 determinations
T1 construct: purchased from Carna (GST-a.a. 669-1210)
T1 sequence (P00533 669-1210 T790M/L858R): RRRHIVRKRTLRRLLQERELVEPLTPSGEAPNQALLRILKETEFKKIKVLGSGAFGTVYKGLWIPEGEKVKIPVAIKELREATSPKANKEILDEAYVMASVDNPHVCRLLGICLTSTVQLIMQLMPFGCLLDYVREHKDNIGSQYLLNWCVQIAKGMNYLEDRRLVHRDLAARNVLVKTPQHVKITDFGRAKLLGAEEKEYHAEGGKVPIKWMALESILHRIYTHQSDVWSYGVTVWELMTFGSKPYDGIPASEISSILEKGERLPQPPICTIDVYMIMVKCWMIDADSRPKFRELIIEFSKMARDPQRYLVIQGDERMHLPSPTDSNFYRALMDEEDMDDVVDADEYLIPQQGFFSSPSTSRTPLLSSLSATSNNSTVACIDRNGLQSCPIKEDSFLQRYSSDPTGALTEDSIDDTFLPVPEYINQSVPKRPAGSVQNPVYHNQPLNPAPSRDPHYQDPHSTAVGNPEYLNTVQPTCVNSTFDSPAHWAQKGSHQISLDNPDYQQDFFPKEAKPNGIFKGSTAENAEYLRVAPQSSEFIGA
Experimental: All EGFR biochemical assays were carried out by HTRF method. […] The substrate peptide Biotin-TK-peptide was purchased from Cis-Bio. […] All reactions were carried out at room temperature in white ProxiPlate™ 384-well Plus plates (PerkinElmer) and were quenched with 5 μL of 0.2 M EDTA at 60 min. Five L of the detection reagents (2.5 ng PT66K and 0.05 μg SAXL per well) were added, the plates were incubated at room temperature for 1 h and then read in EnVision reader. […] For no-preincubation condition, the compounds were added to the assay solution containing ATP and peptide, and the reaction was initiated by addition of enzyme. For pre-incubation conditions, the compounds were added to the assay solution containing enzyme and peptide, and pre-incubated at room temperature for desired period of time, then the reaction was initiated by addition of ATP.

[4] = EGFR (L858R/T790M) with 90 min pre-incubation, read-out: IC50 (μM) Column B
[5] = EGFR (L858R/T790M) with no pre-incubation, read-out: IC50 (μM) Column A

SMILES | IC50 [1] | IC50 [2] | IC50 [3] | IC50 (EGFR(L858R/T790M); [4]) | IC50 (EGFR(L858R/T790M); [5])
C=C(CN1CCOCC1)C(=O)N1CCCC[C@@H](n2c(NC(=O)c3ccnnc3)nc3cccc(C)c32)C1 [Example 17-93] | 0.35 µM | 0.281 µM | 4.2 µM | 0.059 µM | 0.39 µM
C=CC(=O)N1CCCC[C@@H](n2c(NC(=O)c3cccc(C(F)(F)F)c3)nc3cccc(C(=O)OC)c32)C1 [Example 17-96] | 0.004 µM | 0.016 µM | 1.98 µM | 0.011 µM | 0.106 µM
Cc1cccc2nc(NC(=O)c3ccnc(OC(F)(F)F)c3)n([C@@H]3CCCCN(C(=O)/C=C/CN(C)C)C3)c12 [Example 17-102] | 0.002 µM | 0.001 µM | 0.047 µM | < 0.001 µM | 0.002 µM
Cc1cccc2nc(NC(=O)c3cc(Cl)nc(OC(F)(F)F)c3)n([C@@H]3CCCCN(C(=O)/C=C/CN(C)C)C3)c12 [Example 17-104] | 0.02 µM | 0.023 µM | 0.61 µM | < 0.001 µM | 0.018 µM
C=CC(=O)N1CCC[C@@H](n2c(NC(=O)c3cccc(C(F)(F)F)c3)nc3cc(C(=O)OC)ccc32)C1 [Example 17-110] | 0.46 µM | 4.7 µM | > 10 µM | 0.119 µM | 10.8 µM
C=CC(=O)N1CCCCC(n2c(NC(=O)c3ccccc3)nc3cccc(C(=O)N4CCS(=O)(=O)CC4)c32)C1 (stereo not drawn) [Example 17-115] | 0.165 µM | 1.6 µM | > 10 µM | 0.013 µM | 3.5 µM
CN(C)C/C=C/C(=O)N1CCCCC(n2c(NC(=O)c3cccc(C(F)(F)F)c3)nc3cc(CO)cc(C#N)c32)C1 (stereo not drawn) [Example 17-116] | 0.008 µM | 0.019 µM | 0.47 µM | < 0.001 µM | 0.011 µM
C=CC(=O)N1CCC[C@@H](n2c(NC(=O)c3cccc(C(F)(F)F)c3)nc3cc(CN4C[C@@H](O)[C@H](O)C4)ccc32)C1 [Example 17-120] | 0.86 µM | 8.2 µM | > 10 µM | 0.028 µM | 0.69 µM
C=CC(=O)N1CCC[C@@H](n2c(NC(=O)c3cccc(C(F)(F)F)c3)nc3cc(CO)ccc32)C1 [Example 17-121] | 0.016 µM | 0.259 µM | > 10 µM | < 0.001 µM | 0.127 µM
C=CC(=O)N1CCC[C@@H](n2c(NC(=O)c3cccc(C(F)(F)F)c3)nc3cc(CN4CCC(F)(F)C4)ccc32)C1 [Example 17-125] | 0.013 µM | 0.087 µM | > 7.6 µM | 0.003 µM | 0.068 µM
C=CC(=O)N1CCCC[C@@H](n2c(NC(=O)c3ccccc3)nc3cc(CN(C)CCS(C)(=O)=O)cc(C)c32)C1 [Example 17-127] | 0.001 µM | 0.004 µM | 0.099 µM | < 0.001 µM | 0.002 µM
C=CC(=O)N1CCCC[C@@H](n2c(NC(=O)c3ccccc3)nc3cc(COCCOC)cc(C)c32)C1 [Example 17-128] | 0.002 µM | 0.006 µM | 0.186 µM | < 0.001 µM | 0.007 µM
C=CC(=O)N1CCCC[C@@H](n2c(NC(=O)c3ccccc3)nc3cccc(COCCOC)c32)C1 [Example 17-130] | 0.016 µM | 0.094 µM | 1.41 µM | 0.006 µM | 0.119 µM
C=CC(=O)N1CCCC[C@@H](n2c(NC(=O)c3ccccc3)nc3cccc(CO)c32)C1 [Example 17-131] | 0.002 µM | 0.01 µM | 0.311 µM | < 0.001 µM | 0.005 µM
C=CC(=O)N1CCCC[C@@H](n2c(NC(=O)c3ccccc3)nc3cccc(CN(C)CCS(C)(=O)=O)c32)C1 [Example 17-133] | 0.006 µM | 0.041 µM | 1.29 µM | 0.001 µM | 0.018 µM
